Here are results for three compounds from patent US20230233533A1, “COMPOSITIONS, METHODS OF TREATING AND PREVENTING FUNGAL INFECTIONS, AND METHODS OF INHIBITING PRP8 INTEIN EXPRESSION” (Health Research, Inc., priority 2020, published 2023).

Broadly, the IC50 is the concentration that inhibits the measured activity by half. Broadly, the CC50 is the concentration at which the toxic effect on the cells reaches its halfway point. Read a high CC50 as lower toxicity to the cells. As usually defined, the MIC is the least concentration at which growth counts as inhibited.

Like-named read-outs stand apart in the source and are kept apart here. Bounds are passed on as bounds.

For data set [1], the target named is T1, Prp8 intein (Cryptococcus gattii, UniProt E6R027). Put plainly: Split Renilla luciferase RLuc-Prp8 intein splicing assay. Format: biochemical. The note with it: split Renilla luciferase RLuc-Prp8 intein splicing. The procedure:
Split luciferase Prp8 intein splicing assay—The split RLuc-Prp8 fusion protein was carried out and monitored using a Veritas luminometer, as described previously.
Split luciferase RLuc-Prp8 and NnLuc-Prp8 intein splicing assays—The split RLuc-Prp8 intein splicing assay was carried out and monitored using a Veritas luminometer, as described previously. […] Microbes. Infect. […] For NnLuc-Prp8 intein splicing assay, the NnLuc-prp8 is diluted in assay buffer (50 mM Tris, 0.1% BSA, 1 mM EDTA, pH 7.4) and 50 ul is added to each well in 96 well black plates. Test molecules or the solvent was added and incubated for 30 to 60 min. A splicing inducer TCEP (50 ul, 100 μM) is added and incubated for 24 h. Luciferase substrate (Furimazine, 25 ul 1:10,000 diluted) is added and luminescence is read using a luminescence reader. IC50 is calculated using Graphpad prism.

The target of data set [2] is T1, Prp8 intein. Put plainly: Split GFP-Prp8i intein splicing assay. The note with it: for IC50: split GFP-Prp8 intein splicing. Format: biochemical.
For data set [3], the system named is human lung carcinoma cell line A549. As to the kind of experiment: in vitro. Format: cell-based. The note with it: 48 h, MTT. Summed up: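 A549 cells (5×10^3 per well) were exposed to compounds at 37 °C for 48 h, and viability was read by MTT assay; N=3.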
A further data set relates to C. neoformans H99 strain. As to the kind of experiment: Fungal susceptibility test, broth microdilution MIC. Format: cell-based, Cryptococcus neoformans. As to conditions: C. neoformans H99, microbroth dilution; read-out: MIC H99. Summed up:
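Compound MICs were determined by broth microdilution using a compound concentration series.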
On the technique in general: Dilution methods test growth across graded concentrations, often in twofold steps.

In another data set the test system is trypsin. As to the kind of experiment: Trypsin protease inhibition (Abz FRET substrate). Format: biochemical. As to conditions: compound at 400 μM. The procedure: (§1) Trypsin and papain protease inhibition—An Abz FRET substrate (Abz-RRRRSAG-nTyr) developed previously (Li et al., “Existing Drugs as Broad-Spectrum and Potent Inhibitors for Zika Virus by Targeting NS2B-NS3 Interaction,” Cell Research 27(8):1046-1064 (2017), which is hereby incorporated by reference in its entirety) was used as the substrate for inhibition of trypsin and papain proteases. In black and clear-bottom 96-well plates, 1 μg trypsin (Sigma-Aldrich) was incubated with DMF or compounds at 400 μM at 25° C. for 30 min in a 70 μl reaction buffer containing 20 mM Tris, pH 8.0, 100 mM NaCl, 5% Glycerol, and 0.05% CHAPS. For papain, 1 μg Papain (Sigma-Aldrich) was incubated with compounds at 400 μM at 25° C. for 30 min in a 70 μl reaction buffer composed of 1.1 mM EDTA, 0.067 mM β-mercaptoethanol, 5.5 mM cysteine. […]

A further data set deals with T2, papain (Carica papaya, UniProt P00784).
T2 construct: purchased Sigma-Aldrich
T2 sequence (P00784 134-345): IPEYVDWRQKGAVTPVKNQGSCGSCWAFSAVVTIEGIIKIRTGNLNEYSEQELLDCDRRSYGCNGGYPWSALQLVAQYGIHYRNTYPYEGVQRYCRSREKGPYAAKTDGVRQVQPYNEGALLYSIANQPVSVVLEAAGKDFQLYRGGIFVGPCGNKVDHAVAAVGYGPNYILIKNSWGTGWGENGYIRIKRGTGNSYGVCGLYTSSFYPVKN
As to the kind of experiment: Papain protease inhibition (Abz FRET substrate). Format: biochemical. The note with it: compound at 400 μM. The procedure: as §1

Data set [4] deals with T1, Prp8 intein. The note with it: value from Li et al. 2019; read-out: IC50 determined using the RLuc-Prp8 assay; cited from earlier work.

T1 sequence (E6R027 entry or part of it): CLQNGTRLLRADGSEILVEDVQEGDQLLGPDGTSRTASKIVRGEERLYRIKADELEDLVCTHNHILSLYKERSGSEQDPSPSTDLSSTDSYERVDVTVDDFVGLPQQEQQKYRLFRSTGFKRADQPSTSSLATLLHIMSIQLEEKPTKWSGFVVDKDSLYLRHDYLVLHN

On to “5-((4-Chlorophenyl)sulfonyl)-N-(6-fluoropyridin-3-yl)-1,2,3-thiadiazole-4-carboxamide [JMX0581]”, for which the IC50 worked out at 11.2 µM at Prp8 intein [1] and 6.1 µM on Prp8 intein [2]. In data set [3], this compound yielded a CC50 of 92.4 µM.
On to “5-((4-Chlorophenyl)thio)-N-(6-fluoropyridin-3-yl)-1,2,3-thiadiazole-4-carboxamide [JMX0580]”, for which the figures for the IC50 against Prp8 intein [1] and on Prp8 intein [2] were 6.4 µM and 35.3 µM, respectively. The same compound had a CC50 in data set [3] of 33.1 µM. For the same compound, the MIC with C. neoformans H99 strain is on record as greater than 100 µM.
`N.N.[Cl][Pt][Cl]` [cisplatin, reference compound]: the “inhibition of trypsin protease activity” value in the data set with trypsin is reported as “neither 6G-318S, 6G-319S, nor cisplatin significantly inhibited”. Besides, at Prp8 intein [2] (cisplatin 40 μM, GFP-Prp8i 200 nM), the “fluorescence increase of the GFP-Prp8i fusion” value is “significantly reduced”. For the same compound, the IC50 against Prp8 intein [2] was 6.7 µM; on Prp8 intein [4] it was 2.5 µM. Moreover, on papain, the “inhibition of papain protease activity” value was “neither 6G-318S, 6G-319S, nor cisplatin significantly inhibited”.
